Measured values from patent publication US9540647B2, “Methods and compositions for the treatment of cancer” (University of South Alabama, priority 2010, dated 2017).
“Also recorded” adds a separate entry of the source.

Columns and labels:
OPN = assay: Secreted OPN in conditioned media of MDA-MB-435 cells (Western blot); format: cell-based, human; settings: 10 μM and 20 μM cyclopamine vs DMSO
Description: Stable vector only and non-targeting (scrambled control) transfectants were also generated. Stable transfectants were selected on medium supplemented with 500 μg/ml Geneticin (Invitrogen). The four GLI1-knocked down clones chosen were based on the extent of GLI1 knockdown and were termed KO1, KO2, KO3, and KO4. The expression of OPN was restored in the KO1 cells by transfecting with pcDNA3.1-OPN. A corresponding vector-only transfectant was also generated. Transfectants were selected on medium containing Geneticin (500 μg/ml) and hygromycin (750 μg/ml). Serum-free conditioned medium harvested from approximately 3.0×10^6 cells after 24 hr was assayed for OPN by immunoblotting.
Western Blotting Analysis—Whole cell lysates were collected in Nonidet P-40 buffer (150 mM NaCl, 50 mM Tris, 1% Nonidet P-40). Isolation of cytosolic and nuclear fractions was done as previously reported (15). Total protein (30 μg) was resolved by SDS-PAGE gel and transferred to polyvinylidene difluoride membranes. […] Secreted OPN was assessed by loading an equal quantity of protein from the serum-free conditioned medium. […]

[1] = test system: MC3T3-E1 pre-osteoblast cells; assay: Osteoblast differentiation and mineralization (ALP, Alizarin Red S, BSP, osteocalcin); format: cell-based, murine
Description: The procedure for differentiation of osteoblasts was standardized. MC3T3-E1 cells were cultured in the presence of ascorbic acid and β-glycerophosphate. Mineralization was examined by Alizarin RedS staining (Ueno, A., et al. (2001). Matrix Biol 20, 347-355; Lee, Y. K., et al. (2004). J Biomed Mater Res A 69, 188-195; Duarte, W. R., et al. (2003). S100A4: a novel negative regulator of mineralization and osteoblast differentiation. J Bone Miner Res 18, 493-501). Referring to FIG. 13 and FIG. 14, differentiation was evident by intense red staining in presence of differentiation medium and in differentiation medium containing SHH compared to the control, growth medium. This was also evident in the intensity of absorbance and in the numbers of mineralized nodules formed (counted under the microscope) (FIG. 15).
Induction of osteoblastic and osteoclastic differentiation—In order to test the effect of conditioned medium from the tumor cells on osteoblast differentiation, a double-strength differentiation medium (DM) was formulated for MC3T3 E1 Sc-14 cells. It comprised αMEM, 20% FBS, 50 μg/ml ascorbic acid and 20 mM β-glycerophosphate. Conditioned media and the double-strength DM were mixed in a 1:1 ratio. 1×DM was used as control. Similarly a double-strength differentiation medium was formulated for RAW 264.7 cell lines. It consisted of 20% FBS, 50 ng/ml of RANKL and 20 ng/ml of M-CSF added to the growth medium. Conditioned media from the tumor cells was mixed 1:1 with the double-strength DM. 1×DM was used as control. Osteoblast differentiation was assessed by alkaline phosphatase (ALP) activity assay in the perspective of total phosphatase. The functional assessment of osteoblast mineralization was quantified by staining with Alizarin Red S and scoring the number of mineralized nodules.
Quantitative RT-PCR (qRT-PCR)—cDNA was generated using High Capacity Reverse Transcriptase Kit (Applied Biosystems, Foster City, Calif.). Real time PCR was performed using a BioRad iQ5 Real-Time Detection system (Bio-Rad, Hercules, Calif.). All reactions were done in triplicate. OPN transcript levels were normalized to GAPDH levels (dCT) which was used to calculate changes in OPN expression (2-ddCT). […] The primers used included Sppl (OPN) (Mm 00436767_m1); Bglap (osteocalcin) (Mm 01741771_g1); IBSP (Mm 00492555_m1); PTHrP (Mm 00433057_m1); RANKL (Mm 00441906_m1); GAPDH (Mm 99999915_g1).

OPN promoter [2] = assay: OPN promoter luciferase reporter assay in metastatic melanoma cell lines; format: cell-based, human
Text: (§1) Empty pGL3 vector was used as control. […] Readings were normalized to total protein content. Each parameter was studied in triplicate and the experiment repeated at least 3 times. The data are represented as percent luciferase activity, which was derived as a percent of the relative light units in treated groups compared with the untreated groups.

OPN promoter [3] = assay: OPN promoter reporter activity in MC3T3-E1 pre-osteoblastic cells; format: cell-based, murine
Description: as §1
Empty pGL3 vector was used as control. Different concentrations of SHH ligand were added to the well the next day. Cells were lysed in Reporter Lysis buffer (Promega) 24 hrs post addition of SHH and both β-galactosidase assay and luciferase assays were done following manufacturer's protocol. Readings were normalized to β-galactosidase. Each parameter was studied in triplicate and the experiment repeated at least 3 times.

CC1=C2C[C@H]3[C@@H](CC=C4C[C@@H](O)CC[C@@]43C)[C@@H]2CC[C@]12O[C@@H]1C[C@H](C)CN[C@H]1[C@H]2C [cyclopamine]
OPN in the secretome (OPN): decreased

SHH: recombinant Sonic Hedgehog ligand (R & D Systems)
alkaline phosphatase (ALP) activity, osteoblast differentiation ([1]; DM supplemented with 100 nM recombinant ligand vs DM alone): promotes differentiation; also recorded: significantly greater
mineralized nodules / Alizarin Red staining ([1]; DM with recombinant ligand vs DM alone, 14 days): promote differentiation; also recorded: significantly greater number of mineralized nodules
expression of BSP ([1]; in presence of SHH, 14 days): significantly elevated
expression of osteocalcin ([1]; in presence of SHH, 14 days): significantly elevated
OPN promoter activity (OPN promoter [2]; MCC012A cells, Hedgehog ligand treatment): significant increase
OPN promoter activity (OPN promoter [2]; MCC012F cells, Hedgehog ligand treatment): significant increase
OPN promoter activity (OPN promoter [2]; MDA-MB-435 cells, increasing concentrations of ligand vs untreated control): significantly (p<0.0001) higher
OPN promoter activity (OPN promoter [3]): activate OPN promoter; also recorded: upregulation in OPN promoter activity
